From PMC7998974, “Enhanced Efficacy of Thiosemicarbazone Derivative-Encapsulated Fibrin Liposomes against Candidiasis in Murine Model” (Pharmaceutics, 2021)
Values after ≈ are worked out from the molar mass of the structure shown.

What was measured:
C. albicans (ATCC 18804) = assay: Minimum inhibitory concentration by broth microdilution; assay type: cell-based; conditions: Candida albicans, ATCC18804, 50% inhibition of growth, RPMI 1640, 24 h, 37 °C, formulation weight for formulations
C. albicans [1] = assay: Annexin-V assay for detecting apoptosis; assay type: cell-based, Candida albicans; conditions: annexin V-FITC/PI flow cytometry
Protocol: The therapeutic effect of 2C-FL against fungal infection was done by detecting the presence of apoptosis markers in C. albicans, as mentioned by Tang et al.. Briefly, 5 × 10^6 colony-forming units (CFU)/mL of C. albicans were grown at 37 °C for 5 h in the RPMI 1640 medium containing 2C-L and 2C-FL, separately. The culture was further incubated for 48 h at 37 °C with shaking at 180 rpm. After harvesting and washing with PBS (pH 7.4), the fungus was digested with a lysis buffer. After digestion, apoptotic cell death was analyzed using an annexin V assay as per the published protocol. The fungal cell suspension was incubated with annexin V-FITC (50 µg/mL) and propidium iodide (PI; 200 µg/mL) in dark for 20 min at room temperature. The apoptotic and necrotic cells were scored by flow cytometry (MACSQuant, Germany).

non-cancer cell lines = tested on: non-cancer cell lines; parameters: method as in PMID 24513049; conditions: cited from earlier work
[2] = Determination of 2C dose (LD50) in healthy mice; assay type: in vivo
Protocol: The dose of 2C for the antifungal treatment in vivo was determined according to the already published report. Five groups (n = 5/group) comprising healthy mice were intraperitoneally injected with different doses of 2C. Mice of the sixth group (control group) were intraperitoneally injected with PBS.

[3] = Pharmacokinetics in healthy mice; assay type: in vivo; conditions: single dose, formulations 5 mg/kg b.w., free 2C 1 mg/kg b.w.
Protocol: For pharmacokinetic studies, 2C-L and 2C-FL were administered to healthy mice. A single dose of 5 mg/kg body weight (b.w.) of the formulations was injected via the tail vein. Free 2C was administered in a single dose comprising 1 mg/kg b.w. Blood aliquots were collected using a non-mortality model at different periods, and serum was centrifuged out. […] Results are reported as the mean ± SD of three independent experiments.

[4] = In vivo renal and hepatic toxicity (serum creatinine, ALT, total bilirubin); conditions: healthy mice
Protocol: (§1) For in vivo toxicity, renal and hepatic toxicities were evaluated in healthy mice. According to the method of Khan et al., [39], a three-dose regimen of 400 µg formulation/dose/mouse was intraperitoneally given on the 1st, 3rd, and 5th days. Blood samples from different treatment groups were taken as pre-dose (a day before the administration of the formulation) and post-dose (the 6th day of the administration of the formulation). The levels of serum creatinine, ALT, and total bilirubin were evaluated by employing a commercial detection kit. Results are expressed as the mean ± SD of three independent experiments. Moreover, the extent of toxicity of 2C-FL was determined on liver and kidney histopathology.

C. albicans [5] = assay: Survival of C. albicans-infected mice; assay type: in vivo, Swiss albino mice; conditions: 2 mg 2C/kg b.w. for five days
Protocol: The antifungal activity of 2C-FL was determined in a mouse model with C. albicans infection. For infection, healthy mice were infected with an inoculum of 100 µL saline containing 5 × 10^5 CFU of C. albicans per mouse by an intravenous route in the lateral tail vein. One day post-infection, the mice were randomly distributed into six groups (n = 10/group) and treated with formulations (2 mg 2C/kg b.w.) for five days. […] A simultaneous set of experiments was conducted for the survival studies.
The antifungal ability of 2C-FL was also determined by evaluating the survival rate of the treated mice. The study was conducted for 60 days, during which mice were monitored for mortality twice each day and results were scored.

[6] = tested on: Candida albicans ATCC 66027, Candida spp. 12,810 (blood) and Candida spp.; parameters: method as in PMID 24513049; conditions: in vitro, series of substituted thiosemicarbazide derivatives; cited from earlier work
[7] = Erythrocyte lysis test (in vitro toxicity); assay type: cell-based; conditions: rabbit erythrocytes (0.2% RBC suspension), pH 7.4, dose of 10 mg/L, 37 °C, read-out: hemolytic ability to erythrocytes (percent hemolysis)
Protocol: The in vitro toxicity of free 2C and 2C-FL was determined using the previously published method of erythrocyte lysis test. Briefly, blood samples from a healthy rabbit were collected in an anticoagulant solution. The samples were centrifuged at 4 °C, the pellet containing erythrocytes was washed with PBS (pH 7.4), and, finally, 50% hematocrit was prepared. […] The hemolytic effects were evaluated by visible spectroscopy at 576 nm, and percent hemolysis was calculated. The 100% hemolytic ability of Triton X-100 was taken as the positive control. Results are expressed as the mean ± SD of three independent experiments.

[8] = parameters: method as in PMID 26457700; conditions: solubility checked earlier; cited from earlier work
[9] = Histopathological examination of liver and kidney sections; assay type: in vivo; conditions: healthy mice, H&E, 200X
Protocol: as §1
Briefly, the fixed tissues were dehydrated and embedded in paraffin wax. […] Next, paraffin from the sections was removed by three consecutive washings in xylol. The sections were then […] in series of alcohol grades (70–100%), and, finally, the sections were stained with hematoxylin and eosin and visualized under a light microscope (Olympus CLX 41) at 200X magnification.

[10] = serum, post-dose, 400 µg formulation/dose/mouse i.p. on days 1, 3, 5

SMILES: O=C(NNC(=S)Nc1ccc(Cl)cc1)c1ccncc1 [2C]
- MIC (C. albicans (ATCC 18804)): 0.46 ± 0.05 µg/mL (≈ 1.5 µM)
- necrosis (C. albicans [1]): prominent increase
- toxicity to non-cancer cell lines (non-cancer cell lines): minimal toxicity
- LD50 ([2]; healthy mice, intraperitoneal, mortality after 24 h): 20 mg/kg b.w.
- mortality at one-tenth of the LD50 ([2]; mice, 2 mg/kg b.w., three weeks of treatment): did not show any mortality
- Cmax ([3]; Swiss albino, mouse, plasma, intravenous): 1400 ± 250 ng/mL
- clearance ([3]; Swiss albino, mouse, plasma, intravenous, read-out: CL (plasma clearance) (converted)): 1.28 mL/min
- AUC0–24 [3]: 0.91 ± 0.17 µg/mL x h
- ALT, Day 6 [4, 10]: 45.1 ± 8.5 U/I
- Creatinine, Day 6 [4, 10]: 0.34 ± 0.05 mg%
- Total Bilirubin, Day 6 [4, 10]: 0.21 ± 0.07
- ALT, Day 0 ([4]; serum, pre-dose): 40.9 ± 7.3 U/I
- Creatinine, Day 0 ([4]; serum, pre-dose): 0.29 ± 0.06 mg%
- Total Bilirubin, Day 0 ([4]; serum, pre-dose): 0.15 ± 0.04
- change in serum creatinine, ALT and bilirubin levels versus healthy control ([4]; sixth day): showed an increase
- survival of treated mice till the 30th day (C. albicans [5]): 30%
- anti-Candida activity within the series [6]: most effective one
- hemolysis at 1 h, 10 mg/L [7]: 100%
- solubility in water [8]: insoluble in water
- toxic effect on kidney histopathology [9]: prominent toxicity
- toxic effect on liver histopathology [9]: focal lytic necrosis and enlarged sinusoids

SMILES: CCC(C)n1ncn(-c2ccc(N3CCN(c4ccc(OCC5COC(Cn6cncn6)(c6ccc(Cl)cc6Cl)O5)cc4)CC3)cc2)c1=O (stereo not shown) [Itraconazole, itraconazole, reference compound]
- MIC (C. albicans (ATCC 18804)): 1.26 ± 0.71 µg/mL (≈ 1.79 µM)
